Assay results taken from PubChem BioAssay AID1963968 (Molecular Pharmacology Branch, DTP, NCI, 2024).

System: 945468-187-T-J3-PDC spheroids with HUVEC/MSC, viability
Test: Anticancer human tumor 945468-187-T-J3-PDC patient-derived rectal carcinoma cell line growth inhibition [PI3K]
Conditions: for IC50: curve of first compound; for viability, T/C: stronger effect = lower value
How it was run: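 Targeted small molecules plus PI3K inhibitors, half-log dose series from Cmax (default top 10 microM), were applied to heterotypic spheroids of cancer cells with HUVEC and MSCs. Viability indicated growth inhibition.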

[1] = second compound 0.0316 µM, first compound 0.0316 µM
[2] = second compound 0.0316 µM, first compound 0.1 µM
[3] = second compound 0.0316 µM, first compound 0.316 µM
[4] = second compound 0.0316 µM, first compound 1 µM
[5] = second compound 0.0316 µM, first compound 3.16 µM
[6] = second compound 0.0316 µM, first compound 10 µM
[7] = second compound 0.1 µM, first compound 0.0316 µM
[8] = second compound 0.1 µM, first compound 0.1 µM
[9] = second compound 0.1 µM, first compound 0.316 µM
[10] = second compound 0.1 µM, first compound 1 µM
[11] = second compound 0.1 µM, first compound 3.16 µM
[12] = second compound 0.1 µM, first compound 10 µM
[13] = second compound 0.316 µM, first compound 0.0316 µM
[14] = second compound 0.316 µM, first compound 0.1 µM
[15] = second compound 0.316 µM, first compound 0.316 µM
[16] = second compound 0.316 µM, first compound 1 µM
[17] = second compound 0.316 µM, first compound 3.16 µM
[18] = second compound 0.316 µM, first compound 10 µM
[19] = second compound 1 µM, first compound 0.0316 µM
[20] = second compound 1 µM, first compound 0.1 µM
[21] = second compound 1 µM, first compound 0.316 µM
[22] = second compound 1 µM, first compound 1 µM
[23] = second compound 1 µM, first compound 3.16 µM
[24] = second compound 1 µM, first compound 10 µM
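Also: spheroids exposed to agents for 7 days before viability read.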
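For viability, T/C in this document: 100% = DMSO vehicle control viability.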

## CC1(C)CCC(Nc2ncc(C(F)(F)F)c(-c3c[nH]c4c(P(C)(C)=O)c(C#N)ccc34)n2)CN1 (stereo unspecified) + COc1c(OCCCN2CCOCC2)ccc2c3n(c(=NC(=O)c4cnc(N)nc4)nc12)CCN3
Second compound 0.00316 µM
  IC50: 3350 nM
Second compound 0.01 µM
  IC50: 31.6 nM
Second compound 0.0316 µM
  IC50: 1250 nM
Second compound 0.1 µM
  IC50: < 31.6 nM
Second compound 0.316 µM
  IC50: < 31.6 nM
Second compound 1 µM
  IC50: < 31.6 nM
Second compound 0.00316 µM, first compound 0.0316 µM
  viability, T/C: 55.6%
Second compound 0.00316 µM, first compound 0.1 µM
  viability, T/C: 40.7%
Second compound 0.00316 µM, first compound 0.316 µM
  viability, T/C: 39%
Second compound 0.00316 µM, first compound 1 µM
  viability, T/C: 49.6%
Second compound 0.00316 µM, first compound 3.16 µM
  viability, T/C: 78.7%
Second compound 0.00316 µM, first compound 10 µM
  viability, T/C: 6.58%
Second compound 0.01 µM, first compound 0.0316 µM
  viability, T/C: 45.7%
Second compound 0.01 µM, first compound 0.1 µM
  viability, T/C: 48.1%
Second compound 0.01 µM, first compound 0.316 µM
  viability, T/C: 41.9%
Second compound 0.01 µM, first compound 1 µM
  viability, T/C: 56%
Second compound 0.01 µM, first compound 3.16 µM
  viability, T/C: 55.7%
Second compound 0.01 µM, first compound 10 µM
  viability, T/C: 5.22%
[1]
  viability, T/C: 56.8%
[2]
  viability, T/C: 47.4%
[3]
  viability, T/C: 52%
[4]
  viability, T/C: 48.1%
[5]
  viability, T/C: 46.9%
[6]
  viability, T/C: 5.62%
[7]
  viability, T/C: 40.4%
[8]
  viability, T/C: 39.2%
[9]
  viability, T/C: 34.3%
[10]
  viability, T/C: 35.4%
[11]
  viability, T/C: 40.3%
[12]
  viability, T/C: 2.67%
[13]
  viability, T/C: 27.9%
[14]
  viability, T/C: 26.6%
[15]
  viability, T/C: 23.2%
[16]
  viability, T/C: 20.5%
[17]
  viability, T/C: 20.8%
[18]
  viability, T/C: 5.77%
[19]
  viability, T/C: 15.7%
[20]
  viability, T/C: 17.2%
[21]
  viability, T/C: 17.5%
[22]
  viability, T/C: 14.6%
[23]
  viability, T/C: 11.4%
[24]
  viability, T/C: 0.98%

## CNC(=O)c1ccc(N2C(=S)N(c3ccc(C#N)c(C(F)(F)F)c3)C(=O)C2(C)C)cc1F + Cc1nc(NC(=O)N2CCCC2C(N)=O)sc1-c1ccnc(C(C)(C)C(F)(F)F)c1
Second compound 0.0316 µM
  IC50: > 10000 nM
Second compound 0.1 µM
  IC50: > 10000 nM
Second compound 0.316 µM
  IC50: > 10000 nM
Second compound 1 µM
  IC50: > 10000 nM
Second compound 3.16 µM
  IC50: > 10000 nM
Second compound 10 µM
  IC50: > 10000 nM
[1]
  viability, T/C: 102%
[2]
  viability, T/C: 108%
[3]
  viability, T/C: 96.1%
[4]
  viability, T/C: 115%
[5]
  viability, T/C: 107%
[6]
  viability, T/C: 104%
[7]
  viability, T/C: 108%
[8]
  viability, T/C: 106%
[9]
  viability, T/C: 99.7%
[10]
  viability, T/C: 105%
[11]
  viability, T/C: 116%
[12]
  viability, T/C: 94.8%
[13]
  viability, T/C: 125%
[14]
  viability, T/C: 108%
[15]
  viability, T/C: 97%
[16]
  viability, T/C: 105%
[17]
  viability, T/C: 116%
[18]
  viability, T/C: 108%
[19]
  viability, T/C: 120%
[20]
  viability, T/C: 115%
[21]
  viability, T/C: 97.6%
[22]
  viability, T/C: 118%
[23]
  viability, T/C: 105%
[24]
  viability, T/C: 108%
Second compound 3.16 µM, first compound 0.0316 µM
  viability, T/C: 123%
Second compound 3.16 µM, first compound 0.1 µM
  viability, T/C: 110%
Second compound 3.16 µM, first compound 0.316 µM
  viability, T/C: 101%
Second compound 3.16 µM, first compound 1 µM
  viability, T/C: 112%
Second compound 3.16 µM, first compound 3.16 µM
  viability, T/C: 108%
Second compound 3.16 µM, first compound 10 µM
  viability, T/C: 121%
Second compound 10 µM, first compound 0.0316 µM
  viability, T/C: 61.1%
Second compound 10 µM, first compound 0.1 µM
  viability, T/C: 68.6%
Second compound 10 µM, first compound 0.316 µM
  viability, T/C: 59.5%
Second compound 10 µM, first compound 1 µM
  viability, T/C: 61.2%
Second compound 10 µM, first compound 3.16 µM
  viability, T/C: 67.9%
Second compound 10 µM, first compound 10 µM
  viability, T/C: 88.5%

## Cn1cnc2c(F)c(Nc3ccc(Br)cc3Cl)c(C(=O)NOCCO)cc21 + Cc1nc(NC(=O)N2CCCC2C(N)=O)sc1-c1ccnc(C(C)(C)C(F)(F)F)c1
Second compound 0.0316 µM
  IC50: > 3000 nM
Second compound 0.1 µM
  IC50: > 3000 nM
Second compound 0.316 µM
  IC50: > 3000 nM
Second compound 1 µM
  IC50: 1180 nM
Second compound 3.16 µM
  IC50: 286 nM
Second compound 10 µM
  IC50: 20.9 nM
Second compound 0.0316 µM, first compound 0.00949 µM
  viability, T/C: 111%
Second compound 0.0316 µM, first compound 0.03 µM
  viability, T/C: 124%
Second compound 0.0316 µM, first compound 0.0949 µM
  viability, T/C: 129%
Second compound 0.0316 µM, first compound 0.3 µM
  viability, T/C: 120%
Second compound 0.0316 µM, first compound 0.949 µM
  viability, T/C: 123%
Second compound 0.0316 µM, first compound 3 µM
  viability, T/C: 107%
Second compound 0.1 µM, first compound 0.00949 µM
  viability, T/C: 113%
Second compound 0.1 µM, first compound 0.03 µM
  viability, T/C: 109%
Second compound 0.1 µM, first compound 0.0949 µM
  viability, T/C: 114%
Second compound 0.1 µM, first compound 0.3 µM
  viability, T/C: 122%
Second compound 0.1 µM, first compound 0.949 µM
  viability, T/C: 114%
Second compound 0.1 µM, first compound 3 µM
  viability, T/C: 90.4%
Second compound 0.316 µM, first compound 0.00949 µM
  viability, T/C: 114%
Second compound 0.316 µM, first compound 0.03 µM
  viability, T/C: 123%
Second compound 0.316 µM, first compound 0.0949 µM
  viability, T/C: 116%
Second compound 0.316 µM, first compound 0.3 µM
  viability, T/C: 123%
Second compound 0.316 µM, first compound 0.949 µM
  viability, T/C: 94.1%
Second compound 0.316 µM, first compound 3 µM
  viability, T/C: 60.4%
Second compound 1 µM, first compound 0.00949 µM
  viability, T/C: 117%
Second compound 1 µM, first compound 0.03 µM
  viability, T/C: 125%
Second compound 1 µM, first compound 0.0949 µM
  viability, T/C: 100%
Second compound 1 µM, first compound 0.3 µM
  viability, T/C: 101%
Second compound 1 µM, first compound 0.949 µM
  viability, T/C: 51.8%
Second compound 1 µM, first compound 3 µM
  viability, T/C: 34.2%
Second compound 3.16 µM, first compound 0.00949 µM
  viability, T/C: 105%
Second compound 3.16 µM, first compound 0.03 µM
  viability, T/C: 87%
Second compound 3.16 µM, first compound 0.0949 µM
  viability, T/C: 61.6%
Second compound 3.16 µM, first compound 0.3 µM
  viability, T/C: 55.7%
Second compound 3.16 µM, first compound 0.949 µM
  viability, T/C: 30%
Second compound 3.16 µM, first compound 3 µM
  viability, T/C: 20.2%
Second compound 10 µM, first compound 0.00949 µM
  viability, T/C: 56.9%
Second compound 10 µM, first compound 0.03 µM
  viability, T/C: 46.5%
Second compound 10 µM, first compound 0.0949 µM
  viability, T/C: 34.3%
Second compound 10 µM, first compound 0.3 µM
  viability, T/C: 20.6%
Second compound 10 µM, first compound 0.949 µM
  viability, T/C: 10.7%
Second compound 10 µM, first compound 3 µM
  viability, T/C: 4.74%
